Data: publication doi:10.1101/2025.01.28.635346v1 (bioRxiv, 2025)
Bridge positions count the residues as written; N and C are the ends. Side chains are listed from the residue outwards. Peptide text beside a SMILES is read from it. * marks the point of attachment. Butanoyl(4-(4-I-phenyl)) = O=C(CCCc1ccc(I)cc1)*; PEG2 = NCCOCCOCCC(=O)O

Experiments:
[1] = target: T1, AR (Homo sapiens, UniProt P10275); assay: Safetyscan47 NHR Nuclear Translocation, Antagonist; assay type: cell-based; settings: for Emax: read-out: Max Response
T1 sequence (P10275 1-920): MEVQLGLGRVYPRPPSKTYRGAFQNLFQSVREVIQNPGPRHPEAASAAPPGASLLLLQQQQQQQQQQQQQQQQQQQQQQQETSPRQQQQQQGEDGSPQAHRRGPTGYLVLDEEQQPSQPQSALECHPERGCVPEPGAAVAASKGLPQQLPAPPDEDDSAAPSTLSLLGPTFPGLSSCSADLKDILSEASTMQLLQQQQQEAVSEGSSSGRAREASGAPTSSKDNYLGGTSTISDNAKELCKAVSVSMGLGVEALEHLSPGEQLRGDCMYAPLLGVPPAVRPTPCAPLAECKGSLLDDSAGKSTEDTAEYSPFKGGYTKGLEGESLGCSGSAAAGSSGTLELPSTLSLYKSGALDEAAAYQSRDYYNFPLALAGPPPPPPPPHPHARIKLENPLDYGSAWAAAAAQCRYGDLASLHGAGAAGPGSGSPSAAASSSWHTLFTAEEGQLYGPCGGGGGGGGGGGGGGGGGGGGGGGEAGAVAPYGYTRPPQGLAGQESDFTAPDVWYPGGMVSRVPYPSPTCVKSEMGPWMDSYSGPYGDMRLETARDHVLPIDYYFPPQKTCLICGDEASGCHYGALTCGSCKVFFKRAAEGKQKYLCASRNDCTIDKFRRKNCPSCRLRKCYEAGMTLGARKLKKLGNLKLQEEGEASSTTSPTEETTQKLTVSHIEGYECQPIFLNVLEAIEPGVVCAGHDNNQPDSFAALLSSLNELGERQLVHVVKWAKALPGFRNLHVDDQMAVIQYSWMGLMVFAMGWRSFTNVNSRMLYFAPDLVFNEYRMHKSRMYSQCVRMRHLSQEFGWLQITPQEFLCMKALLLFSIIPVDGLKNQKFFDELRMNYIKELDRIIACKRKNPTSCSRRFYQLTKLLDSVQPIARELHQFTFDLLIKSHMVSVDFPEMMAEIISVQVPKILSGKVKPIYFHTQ

[2] = target: HTR2A (Homo sapiens, UniProt P28223); assay: Safetyscan47 GPCR Calcium Flux, Antagonist; assay type: cell-based; settings: for Emax: read-out: Max Response
[3] = target: T2, EDNRA (Homo sapiens, UniProt P25101); assay: Safetyscan47 GPCR Calcium Flux, Antagonist; assay type: cell-based; settings: for Emax: read-out: Max Response
T2 sequence (P25101 21-427): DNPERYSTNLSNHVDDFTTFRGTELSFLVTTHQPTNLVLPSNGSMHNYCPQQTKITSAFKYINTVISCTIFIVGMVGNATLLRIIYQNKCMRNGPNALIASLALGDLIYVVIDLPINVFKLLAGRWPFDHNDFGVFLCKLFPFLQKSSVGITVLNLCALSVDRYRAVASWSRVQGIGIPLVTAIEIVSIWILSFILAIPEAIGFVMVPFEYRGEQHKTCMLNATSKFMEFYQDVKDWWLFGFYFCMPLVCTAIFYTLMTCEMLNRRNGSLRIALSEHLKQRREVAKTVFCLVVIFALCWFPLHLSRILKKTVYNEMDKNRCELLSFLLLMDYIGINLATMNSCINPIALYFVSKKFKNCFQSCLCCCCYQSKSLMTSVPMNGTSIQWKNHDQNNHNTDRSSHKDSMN

[4] = target: HTR2B (Homo sapiens, UniProt P41595); assay: Safetyscan47 GPCR Calcium Flux, Agonist; assay type: cell-based; settings: for Emax: read-out: Max Response
[5] = target: HRH2 (Homo sapiens, UniProt P25021); assay: Safetyscan47 GPCR cAMP, Agonist; assay type: cell-based; settings: for Emax: read-out: Max Response
[6] = target: NAV1.5 (Homo sapiens, UniProt Q14524); assay: Safetyscan47 Ion Channel, Blocker; assay type: cell-based
[7] = target: AVPR1A (Homo sapiens, UniProt P37288); assay: Safetyscan47 GPCR Calcium Flux, Antagonist; assay type: cell-based; settings: for Emax: read-out: Max Response
[8] = target: PDE3A (Homo sapiens, UniProt Q14432); assay: Safetyscan47 Non-Kinase Enzymes Enzymatic, Inhibitor; assay type: biochemical; settings: for Emax: read-out: Max Response
[9] = target: OPRK1 (Homo sapiens, UniProt P41145); assay: Safetyscan47 GPCR cAMP, Antagonist; assay type: cell-based; settings: for Emax: read-out: Max Response
[10] = target: CNR2 (Homo sapiens, UniProt P34972); assay: Safetyscan47 GPCR cAMP, Antagonist; assay type: cell-based; settings: for Emax: read-out: Max Response
[11] = target: T3, ADRA1A (Homo sapiens, UniProt P35348); assay: Safetyscan47 GPCR Calcium Flux, Agonist; assay type: cell-based; settings: for Emax: read-out: Max Response
T3 sequence (P35348 1-466): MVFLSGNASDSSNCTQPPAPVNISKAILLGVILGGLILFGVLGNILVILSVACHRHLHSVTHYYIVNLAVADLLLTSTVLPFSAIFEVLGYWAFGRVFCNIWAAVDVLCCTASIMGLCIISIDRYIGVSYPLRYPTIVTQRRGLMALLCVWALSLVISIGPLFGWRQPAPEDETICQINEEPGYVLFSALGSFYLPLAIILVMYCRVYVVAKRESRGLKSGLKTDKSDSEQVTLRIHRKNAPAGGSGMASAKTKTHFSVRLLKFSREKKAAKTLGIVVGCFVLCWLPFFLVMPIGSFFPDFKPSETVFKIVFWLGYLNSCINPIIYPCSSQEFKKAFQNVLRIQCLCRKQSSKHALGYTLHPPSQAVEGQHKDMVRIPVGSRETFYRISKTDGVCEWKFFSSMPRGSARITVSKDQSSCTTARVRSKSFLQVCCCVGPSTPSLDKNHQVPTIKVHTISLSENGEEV

[12] = target: GABAA (Homo sapiens, UniProt P14867+P18507+P47870); assay: Safetyscan47 Ion Channel, Blocker; assay type: cell-based; settings: for Emax: read-out: Max Response

PDE3A, sequence (Q14432 whole entry): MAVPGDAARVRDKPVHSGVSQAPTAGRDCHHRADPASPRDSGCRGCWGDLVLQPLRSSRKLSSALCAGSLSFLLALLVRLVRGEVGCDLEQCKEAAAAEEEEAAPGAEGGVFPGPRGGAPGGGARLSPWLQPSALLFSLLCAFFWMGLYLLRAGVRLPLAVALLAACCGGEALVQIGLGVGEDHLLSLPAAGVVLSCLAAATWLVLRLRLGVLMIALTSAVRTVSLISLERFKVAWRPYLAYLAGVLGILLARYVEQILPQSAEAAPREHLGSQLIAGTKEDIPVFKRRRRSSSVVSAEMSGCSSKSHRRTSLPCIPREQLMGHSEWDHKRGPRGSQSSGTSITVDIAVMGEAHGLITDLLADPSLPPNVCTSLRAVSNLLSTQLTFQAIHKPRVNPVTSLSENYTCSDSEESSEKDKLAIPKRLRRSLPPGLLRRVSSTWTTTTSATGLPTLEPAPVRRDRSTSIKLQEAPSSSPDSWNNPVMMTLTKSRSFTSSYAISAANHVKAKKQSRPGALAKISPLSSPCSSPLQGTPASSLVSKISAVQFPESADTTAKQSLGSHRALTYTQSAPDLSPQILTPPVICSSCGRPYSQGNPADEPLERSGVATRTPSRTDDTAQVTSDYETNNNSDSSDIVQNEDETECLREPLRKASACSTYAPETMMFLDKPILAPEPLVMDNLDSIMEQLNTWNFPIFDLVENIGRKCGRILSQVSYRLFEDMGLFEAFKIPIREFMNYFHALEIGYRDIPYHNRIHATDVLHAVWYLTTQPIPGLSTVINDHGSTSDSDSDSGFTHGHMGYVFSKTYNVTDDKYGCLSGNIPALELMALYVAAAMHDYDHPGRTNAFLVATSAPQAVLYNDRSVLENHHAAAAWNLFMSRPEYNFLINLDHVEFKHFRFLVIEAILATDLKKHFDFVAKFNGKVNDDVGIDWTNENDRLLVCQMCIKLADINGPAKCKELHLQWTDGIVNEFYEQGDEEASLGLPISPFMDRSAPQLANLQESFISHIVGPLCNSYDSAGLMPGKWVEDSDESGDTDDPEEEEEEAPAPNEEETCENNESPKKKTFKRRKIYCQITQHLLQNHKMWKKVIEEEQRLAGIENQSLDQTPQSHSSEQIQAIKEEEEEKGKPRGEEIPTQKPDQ
HTR2A, sequence (P28223 whole entry): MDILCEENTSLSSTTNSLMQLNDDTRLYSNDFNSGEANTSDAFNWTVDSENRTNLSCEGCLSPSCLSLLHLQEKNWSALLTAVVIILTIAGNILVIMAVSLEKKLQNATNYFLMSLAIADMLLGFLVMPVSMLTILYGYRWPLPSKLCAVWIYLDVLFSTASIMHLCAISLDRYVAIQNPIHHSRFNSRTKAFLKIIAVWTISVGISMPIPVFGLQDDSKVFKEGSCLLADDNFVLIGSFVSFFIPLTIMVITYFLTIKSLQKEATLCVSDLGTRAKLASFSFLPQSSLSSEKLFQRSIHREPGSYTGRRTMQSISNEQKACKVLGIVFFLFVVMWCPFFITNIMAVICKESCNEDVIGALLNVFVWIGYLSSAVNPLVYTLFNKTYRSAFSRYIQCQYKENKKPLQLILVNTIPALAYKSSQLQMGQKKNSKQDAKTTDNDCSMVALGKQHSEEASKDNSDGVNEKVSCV
NAV1.5, sequence (Q14524 whole entry): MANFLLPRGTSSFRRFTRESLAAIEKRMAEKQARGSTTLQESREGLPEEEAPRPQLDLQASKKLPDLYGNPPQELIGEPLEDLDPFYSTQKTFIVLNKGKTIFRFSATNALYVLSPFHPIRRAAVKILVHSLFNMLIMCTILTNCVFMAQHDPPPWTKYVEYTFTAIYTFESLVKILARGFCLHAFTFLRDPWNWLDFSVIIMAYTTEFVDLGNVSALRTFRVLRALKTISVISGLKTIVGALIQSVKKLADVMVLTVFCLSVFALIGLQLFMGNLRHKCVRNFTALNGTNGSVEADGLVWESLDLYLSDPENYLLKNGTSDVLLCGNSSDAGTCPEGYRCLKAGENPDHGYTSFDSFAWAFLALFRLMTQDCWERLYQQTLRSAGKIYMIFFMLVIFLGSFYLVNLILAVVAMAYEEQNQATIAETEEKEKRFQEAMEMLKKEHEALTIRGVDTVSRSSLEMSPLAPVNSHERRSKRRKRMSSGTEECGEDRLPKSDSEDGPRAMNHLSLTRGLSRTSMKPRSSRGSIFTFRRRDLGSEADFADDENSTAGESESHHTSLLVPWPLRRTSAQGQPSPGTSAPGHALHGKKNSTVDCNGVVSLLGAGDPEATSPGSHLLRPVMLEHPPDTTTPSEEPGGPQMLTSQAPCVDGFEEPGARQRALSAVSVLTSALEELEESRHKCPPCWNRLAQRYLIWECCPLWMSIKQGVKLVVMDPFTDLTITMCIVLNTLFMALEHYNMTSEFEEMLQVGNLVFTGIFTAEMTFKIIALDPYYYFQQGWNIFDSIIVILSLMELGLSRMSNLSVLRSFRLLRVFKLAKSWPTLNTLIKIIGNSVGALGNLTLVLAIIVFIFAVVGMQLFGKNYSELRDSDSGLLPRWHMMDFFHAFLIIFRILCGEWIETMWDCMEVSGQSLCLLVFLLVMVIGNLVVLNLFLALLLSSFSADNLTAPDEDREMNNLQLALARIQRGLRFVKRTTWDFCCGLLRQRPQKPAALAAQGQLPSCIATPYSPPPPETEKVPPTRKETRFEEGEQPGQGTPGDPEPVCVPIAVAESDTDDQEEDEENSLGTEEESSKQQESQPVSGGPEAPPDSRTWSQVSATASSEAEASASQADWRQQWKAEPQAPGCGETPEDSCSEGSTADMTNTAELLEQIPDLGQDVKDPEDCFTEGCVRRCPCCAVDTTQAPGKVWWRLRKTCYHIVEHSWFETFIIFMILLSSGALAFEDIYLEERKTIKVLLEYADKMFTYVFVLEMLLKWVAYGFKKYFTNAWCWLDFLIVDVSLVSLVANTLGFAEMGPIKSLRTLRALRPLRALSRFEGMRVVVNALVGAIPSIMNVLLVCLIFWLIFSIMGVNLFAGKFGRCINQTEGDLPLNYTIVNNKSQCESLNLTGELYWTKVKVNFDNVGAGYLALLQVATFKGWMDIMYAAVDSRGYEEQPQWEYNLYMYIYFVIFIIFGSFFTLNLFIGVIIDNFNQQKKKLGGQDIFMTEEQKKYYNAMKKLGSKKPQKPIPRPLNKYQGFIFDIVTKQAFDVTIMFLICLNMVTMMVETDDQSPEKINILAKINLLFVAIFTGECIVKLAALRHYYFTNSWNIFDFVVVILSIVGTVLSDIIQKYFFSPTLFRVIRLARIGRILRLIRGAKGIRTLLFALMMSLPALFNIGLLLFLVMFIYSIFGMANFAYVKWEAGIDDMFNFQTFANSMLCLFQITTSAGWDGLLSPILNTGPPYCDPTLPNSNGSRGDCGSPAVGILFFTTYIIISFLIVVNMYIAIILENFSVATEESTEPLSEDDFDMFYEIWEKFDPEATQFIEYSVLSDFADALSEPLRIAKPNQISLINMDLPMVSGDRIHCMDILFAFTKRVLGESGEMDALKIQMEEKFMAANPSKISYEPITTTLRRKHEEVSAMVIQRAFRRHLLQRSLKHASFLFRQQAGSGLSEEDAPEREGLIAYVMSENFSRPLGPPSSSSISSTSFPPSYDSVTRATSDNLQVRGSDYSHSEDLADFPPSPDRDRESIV
HRH2, sequence (P25021 whole entry): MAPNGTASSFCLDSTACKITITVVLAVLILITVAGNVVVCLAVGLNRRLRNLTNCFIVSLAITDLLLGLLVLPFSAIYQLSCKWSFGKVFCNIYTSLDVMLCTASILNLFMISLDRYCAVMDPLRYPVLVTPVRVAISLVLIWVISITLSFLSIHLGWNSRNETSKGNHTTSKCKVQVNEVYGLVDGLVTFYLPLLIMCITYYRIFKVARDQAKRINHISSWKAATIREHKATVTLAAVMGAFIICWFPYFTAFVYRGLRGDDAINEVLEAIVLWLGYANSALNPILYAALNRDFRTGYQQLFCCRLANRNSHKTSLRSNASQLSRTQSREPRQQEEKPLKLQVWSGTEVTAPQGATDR
CNR2, sequence (P34972 whole entry): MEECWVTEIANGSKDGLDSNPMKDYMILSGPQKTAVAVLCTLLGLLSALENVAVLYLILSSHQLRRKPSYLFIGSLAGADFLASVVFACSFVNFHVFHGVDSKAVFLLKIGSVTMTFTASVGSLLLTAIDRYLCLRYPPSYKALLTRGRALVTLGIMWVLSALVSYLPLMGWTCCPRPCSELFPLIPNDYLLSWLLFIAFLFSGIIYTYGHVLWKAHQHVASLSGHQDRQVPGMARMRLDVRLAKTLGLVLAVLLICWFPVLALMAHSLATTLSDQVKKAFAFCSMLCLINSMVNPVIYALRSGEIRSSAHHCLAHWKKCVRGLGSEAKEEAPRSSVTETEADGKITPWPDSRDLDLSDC
OPRK1, sequence (P41145 whole entry): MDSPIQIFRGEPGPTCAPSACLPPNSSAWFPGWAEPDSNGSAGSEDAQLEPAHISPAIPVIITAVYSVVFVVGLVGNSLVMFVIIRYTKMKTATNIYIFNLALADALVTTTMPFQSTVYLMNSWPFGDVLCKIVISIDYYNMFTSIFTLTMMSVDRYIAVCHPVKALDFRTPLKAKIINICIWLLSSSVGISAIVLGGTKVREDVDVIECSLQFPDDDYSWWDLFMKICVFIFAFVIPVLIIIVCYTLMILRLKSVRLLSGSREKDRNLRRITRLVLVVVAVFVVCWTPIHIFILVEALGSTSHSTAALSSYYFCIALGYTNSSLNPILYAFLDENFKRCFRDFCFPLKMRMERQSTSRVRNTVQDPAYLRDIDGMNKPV

| Structure (SMILES) | IC50 [1] | Emax [1] | IC50 [2] | Emax [2] | IC50 [3] | Emax [3] | EC50 [4] | Emax [4] | EC50 [5] | Emax [5] | Emax [6] | IC50 [6] | IC50 [7] | Emax [7] | IC50 [8] | Emax [8] | IC50 [9] | Emax [9] | IC50 [10] | Emax [10] | other results |
| --- | --- | --- | --- | --- | --- | --- | --- | --- | --- | --- | --- | --- | --- | --- | --- | --- | --- | --- | --- | --- | --- |
| CC[C@H](C)[C@H](NC(=O)[C@H](CC(C)C)NC(=O)[C@H](CC(=O)O)NC(=O)CNC(=O)[C@H](CCCNC(=N)N)NC(=O)[C@@H](NC(=O)[C@H](Cc1ccccc1)NC(=O)[C@H](Cc1ccc(O)cc1)NC(=O)[C@@H]1CCC(=O)NCC(=O)NCC(=O)N[C@@H](CCCNC(=N)N)C(=O)NCC(=O)N[C@@H](Cc2c[nH]cn2)C(=O)N[C@@H](C(C)C)C(=O)N2CCC[C@H]2C(=O)N1)C(C)C)C(=O)N[C@@H](CO)C(=O)N[C@@H](Cc1ccccc1)C(=O)N[C@@H](Cc1ccc(O)cc1)C(=O)N[C@@H](CCCCN)C(=O)O [lassotide 36] (GGRGHVPEYFVRGDLISFYK-OH; lactam N-8) | > 45 µM | 0% | > 45 µM | 5.08% | > 45 µM | 2.52% | > 45 µM | 0% | > 45 µM | 0% | 39.5% | > 45 µM | > 45 µM | 13.3% | > 45 µM | 0% | > 45 µM | 0% | > 45 µM | 1.15% | EC50 [11]: > 45 µM; Emax [11]: 2.01%; IC50 [12]: > 45 µM; Emax [12]: 0% |
| CC[C@H](C)[C@H](NC(=O)[C@H](CC(C)C)NC(=O)[C@H](CC(=O)O)NC(=O)CNC(=O)[C@H](CCCNC(=N)N)NC(=O)[C@@H](NC(=O)[C@H](Cc1ccccc1)NC(=O)[C@H](Cc1ccc(O)cc1)NC(=O)[C@@H]1CCC(=O)NCC(=O)NCC(=O)N[C@@H](CCCNC(=N)N)C(=O)NCC(=O)N[C@@H](Cc2c[nH]cn2)C(=O)N[C@@H](C(C)C)C(=O)N2CCC[C@H]2C(=O)N1)C(C)C)C(=O)N[C@@H](CO)C(=O)N[C@@H](Cc1ccccc1)C(=O)N[C@@H](Cc1ccc(O)cc1)C(=O)N[C@@H](CCCCNC(=O)CCOCCOCCNC(=O)CCCc1ccc(I)cc1)C(=O)O [lassotide 47] (GGRGHVPEYFVRGDLISFYK([PEG2-Butanoyl(4-(4-I-phenyl))])-OH; lactam N-8) | > 45 µM | 0% | > 45 µM | 10.7% | > 45 µM | 0% | > 45 µM | 0% | > 45 µM | 0% | 0% | > 45 µM | > 45 µM | 25.8% | > 45 µM | 0.63% | > 45 µM | 0% | > 45 µM | 2.1% | EC50 [11]: > 45 µM; Emax [11]: 0.52%; IC50 [12]: > 45 µM; Emax [12]: 0% |
